Structures can show the parent of a compound that is named as a salt. Where two headings read alike, the source gives them in different places.
Target: T1, GAβ-dependent amyloid fibril formation (Human Aβ1-40 + GM1-containing liposome) (Homo sapiens, UniProt P05067)
T1 construct: Human Aβ1-40 (cat. #4307-v, prepared by Peptide Institute); purchased Peptide Institute 4307-v
Experiment: Thioflavin T (ThT) assay of GAβ-dependent amyloid fibril formation (Aβ1-40 with GM1-containing liposome)
Assay type: biochemical
In short: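 Human Aβ1-40 (75 μM stock) pre-incubated 10 min at room temperature with compound (75 or 15 μM solution), then GM1-containing cholesterol/sphingomyelin liposome added and incubated 37° C, 18 hours. Fibrils quantified by ThT fluorescence (ex 430/em 490 nm, pH 8.5 glycine buffer); inhibition as ratio to compound-free control.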

[1] = inhibition rate against amyloid fibril formation, final concentration of the compound 25 μM, read-out: Inhibitory activity ABC evaluation
[2] = @25 μM, read-out: ThT Inhibitory activity (% inhibition)

T1 sequence (P05067 672-711 limits assumed): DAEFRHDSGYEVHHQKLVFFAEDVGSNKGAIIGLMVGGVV

Structure (SMILES) | inhibition at 25 µM [1] [%] | inhibition at 5 µM (@5 μM, read-out: ThT Inhibitory activity (% inhibition)) [%] | inhibition at 25 µM [2] [%]
Oc1ccc(-c2noc(C(O)Cc3c[nH]c4ccccc34)n2)cc1 (stereo not drawn) [Compound 89, 4-[5-{1-hydroxy-2-(1H-indol-3-yl)ethyl}-1,2,4-oxadiazol-3-yl]phenol] | 40 to 80 | – | –
O=C1CC(CO)(c2nc(-c3ccc(O)c(F)c3)no2)CN1c1ccc(Cl)cc1 (stereo not drawn) [Compound 90, 1-(4-chlorophenyl)-4-{3-(3-fluoro-4-hydroxyphenyl)-1,2,4-oxadiazol-5-yl}-4-(hydroxy-methyl)pyrrolidin-2-one] | 40 to 80 | – | –
O=S(=O)(N[C@@H](CO)c1nc(-c2ccc(OC(F)(F)F)cc2)no1)c1cccc(Cl)c1 [Compound 91, (S)-3-chloro-N-(2-hydroxy-1-[3-{4-(trifluoromethoxy)phenyl}-1,2,4-oxadiazol-5-yl]ethyl)benzenesulfonamide] | 40 to 80 | – | –
O=C(N[C@@H](CO)c1nc(-c2ccc(OC(F)(F)F)cc2)no1)c1ccccc1 [Compound 92, (S)-N-(2-hydroxy-1-[3-{4-(tri-fluoromethoxy)phenyl}-1,2,4-oxadiazol-5-yl]ethyl)benzamide] | > 80 | 51 | 81
O=C(N[C@@H](CO)c1nc(-c2ccc(OC(F)(F)F)cc2)no1)c1cccc(F)c1 [Compound 94, (S)-3-fluoro-N-(2-hydroxy-1-[3-{4-(trifluoromethoxy)phenyl}-1,2,4-oxadiazol-5-yl]ethyl)benzamide] | > 80 | – | –
O=C(Nc1ccc(Cl)cc1)N[C@@H](CO)c1nc(-c2ccc(OC(F)(F)F)cc2)no1 [Compound 95, (S)-1-(4-chloro-phenyl)-3-(2-hydroxy-1-[3-{4-(trifluoromethoxy)phenyl}-1,2,4-oxadiazol-5-yl]ethyl)urea] | < 40 | – | –
O=C(c1ccc(Cl)cc1)N(CCO)[C@@H](CO)c1nc(-c2ccc(OC(F)(F)F)cc2)no1 [Compound 96, (S)-4-chloro-N-(2-hydroxy-1-{3-[4-(trifluoromethoxy)phenyl]-1,2,4-oxadiazol-5-yl}ethyl)-N-(2-hydroxyethyl)benzamide] | 40 to 80 | – | –
OC[C@H](NC(=S)Nc1ccc(Cl)cc1)c1nc(-c2ccc(OC(F)(F)F)cc2)no1 [Compound 97, (S)-1-(4-chloro-phenyl)-3-(2-hydroxy-1-[3-{4-(trifluoromethoxy)phenyl}-1,2,4-oxadiazol-5-yl]ethyl)thiourea] | 40 to 80 | – | –
O=C(N[C@@H](CO)c1nc(-c2ccc(OC(F)(F)F)cc2)no1)c1ccc(O)c(Cl)c1 [Compound 98, (S)-3-chloro-4-hydroxy-N-(2-hydroxy-1-[3-{4-(trifluoromethoxy)phenyl}-1,2,4-oxadiazol-5-yl]ethyl)benzamide] | < 40 | – | –
O=C(N[C@@H](CO)c1nc(-c2ccc(O)c(F)c2)no1)c1ccc(Cl)cc1 [Compound 99, (S)-4-chloro-N-(1-(3-(3-fluoro-4-hydroxyphenyl)-1,2,4-oxadiazol-5-yl)-2-hydroxy-ethyl)benzamide] | 40 to 80 | – | –
N#Cc1ccc(C(=O)N[C@@H](CO)c2nc(-c3ccc(O)c(F)c3)no2)cc1 [Compound 100, (S)-4-cyano-N-(1-(3-(3-fluoro-4-hydroxyphenyl)-1,2,4-oxadiazol-5-yl)-2-hydroxy-ethyl)benzamide] | 40 to 80 | – | –
OC(Cc1c[nH]c2ccccc12)c1nc(-c2ccc(OC(F)(F)F)cc2)no1 (stereo not drawn) [Compound 101, 2-(1H-indol-3-yl)-1-{3-[4-(trifluoromethoxy)phenyl]-1,2,4-oxadiazol-5-yl}ethan-1-ol] | > 80 | – | 87
O=C(NC(CO)(CO)c1nc(-c2ccc(OC(F)(F)F)cc2)no1)c1ccc(Cl)cc1 [Compound 102, 4-chloro-N-(1,3-dihydroxy-2-{3-[4-(trifluoromethoxy)phenyl]-1,2,4-oxadiazol-5-yl}propan-2-yl)benzamide] | 40 to 80 | – | –
N#Cc1cccc(-c2nnc([C@H](CO)NC(=O)c3ccc(Cl)cc3)o2)c1 [Compound 106, (S)-4-chloro-N-(1-(5-(3-cyanophenyl)-1,3,4-oxadiazol-2-yl)-2-hydroxyethyl) benzamide] | 40 to 80 | – | –
N#Cc1cccc(-c2nnc([C@@H](CO)NC(=O)c3ccc(Cl)cc3)o2)c1 [Compound 109, (R)-4-chloro-N-(1-(5-(3-cyanophenyl)-1,3,4-oxadiazol-2-yl)-2-hydroxyethyl) benzamide] | < 40 | – | –
N[C@@H](Cc1c[nH]c2ccccc12)c1nnc(-c2ccc(OC(F)(F)F)cc2)o1 [Compound 110, (S)-2-(1H-indol-3-yl)-1-(5-(4-(trifluoro-methoxy)phenyl)-1,3,4-oxadiazol-2-yl) ethan-1-amine hydrochloride] | 40 to 80 | – | –
CS(=O)(=O)Nc1ccc(-c2nnc([C@@H](N)Cc3c[nH]c4ccccc34)o2)cc1 [Compound 111, (S)-N-(4-(5-(1-amino-2-(1H-indol-3-yl)ethyl)-1,3,4-oxadiazol-2-yl)phenyl) methane-sulfonamide hydrochloride] | < 40 | – | –
COc1ccc(-c2nnc([C@H](CO)NC(=O)c3ccc(Cl)cc3)o2)cc1F [Compound 113, (S)-4-chloro-N-(1-(5-(3-fluoro-4-methoxy-phenyl)-1,3,4-oxadiazol-2-yl)-2-hydroxy-ethyl)benzamide] | < 40 | – | –
N[C@H](Cc1c[nH]c2ccccc12)c1nnc(-c2ccc(OC(F)(F)F)cc2)o1 [Compound 114, (R)-2-(1H-indol-3-yl)-1-(5-(4-(trifluoro-methoxy)phenyl)-1,3,4-oxadiazol-2-yl) ethan-1-amine] | > 80 | – | –
O=C(N[C@@H](CO)c1nnc(-c2ccc(O)c(F)c2)o1)c1ccc(Cl)cc1 [Compound 120, (S)-4-chloro-N-(1-(5-(3-fluoro-4-hydroxyphenyl)-1,3,4-oxadiazol-2-yl)-2-hydroxy-ethyl)benzamide] | < 40 | – | –
O=C1CC(c2nc(-c3ccc(OC(F)(F)F)cc3)ns2)CN1c1ccc(Cl)cc1 (stereo not drawn) [Compound 121, 1-(4-chlorophenyl)-4-{3-[4-(trifluoromethoxy)phenyl]-1,2,4-thiadiazol-5-yl}pyrrolidin-2-one] | 40 to 80 | – | –
O=C1CC(c2nnn(-c3ccc(OC(F)(F)F)cc3)n2)CN1c1ccc(Cl)cc1 (stereo not drawn) [Compound 122, 1-(4-chlorophenyl)-4-{2-[4-(trifluoromethoxy)phenyl]-2H-tetrazol-5-yl}pyrrolidin-2-one] | < 40 | – | –
O=C1CC(c2nnc(-c3ccc(OC(F)(F)F)cc3)[nH]2)CN1c1ccc(Cl)cc1 (stereo not drawn) [Compound 123, 1-(4-chlorophenyl)-4-{5-[4-(trifluoromethoxy)phenyl]-4H-1,2,4-triazol-3-yl}pyrrolidin-2-one] | < 40 | – | –

Other lines, results leading:

inhibition at 25 µM [1] [%] | inhibition at 5 µM (@5 μM, read-out: ThT Inhibitory activity (% inhibition)) [%] | inhibition at 25 µM [2] [%] | Structure (SMILES)
40 to 80 | – | – | O=C1CC(c2nnc(-c3ccc(OC(F)(F)F)cc3)o2)CN1c1ccc(Cl)cc1 (stereo not drawn) [Compound 103, 1-(4-chlorophenyl)-4-{5-[4-(trifluoromethoxy)phenyl]-1,3,4-oxadiazol-2-yl}pyrrolidin-2-one]
40 to 80 | – | 75 | O=C(N[C@@H](CO)c1nnc(-c2ccc(OC(F)(F)F)cc2)o1)c1ccc(Cl)cc1 [Compound 104, (S)-4-chloro-N-(2-hydroxy-1-{5-[4-(trifluoromethoxy)phenyl]-1,3,4-oxadiazol-2-yl}ethyl)benzamide]
< 40 | – | – | CS(=O)(=O)Nc1ccc(-c2nnc([C@H](CO)NC(=O)c3ccc(Cl)cc3)o2)cc1 [Compound 105, (S)-4-chloro-N-(2-hydroxy-1-(5-(4-(methyl-sulfonamido)phenyl)-1,3,4-oxadiazol-2-yl)ethyl)benzamide]
40 to 80 | – | – | O=C(N[C@H](CO)c1nnc(-c2ccc(OC(F)(F)F)cc2)o1)c1ccc(Cl)cc1 [Compound 107, (R)-4-chloro-N-(2-hydroxy-1-(5-(4-(trifluoro-methoxy)phenyl)-1,3,4-oxzdiazol-2-yl)ethyl)benzamide]
< 40 | – | – | CS(=O)(=O)Nc1ccc(-c2nnc([C@@H](CO)NC(=O)c3ccc(Cl)cc3)o2)cc1 [Compound 108, (R)-4-chloro-N-(2-hydroxy-1-(5-(4-(methyl-sulfonamido)phenyl)-1,3,4-oxzdiazol-2-yl)ethyl)benzamide]
40 to 80 | – | – | O=C(N[C@@H](CO)c1nnc(-c2ccc(OC(F)(F)F)cc2)o1)c1ccc(F)cc1 [Compound 112, (S)-4-fluoro-N-(2-hydroxy-1-(5-(4-(tri-fluoromethoxy)phenyl)-1,3,4-oxadiazol-2-yl)ethyl)benzamide]
< 40 | – | – | C=C(NC(=O)c1ccc(Cl)cc1)c1nnc(-c2ccc(OC(F)(F)F)cc2)o1 [Compound 115, 4-chloro-N-(1-(5-(4-(trifluoromethoxy)phenyl)-1,3,4-oxadiazol-2-yl)vinyl)benzamide]
> 80 | – | – | NCC(NC(=O)c1ccc(Cl)cc1)c1nnc(-c2ccc(OC(F)(F)F)cc2)o1 (stereo not drawn) [Compound 116, N-(2-amino-1-{5-[4-(trifluoromethoxy)phenyl]-1,3,4-oxadiazol-2-yl}ethyl)-4-chlorobenzamide]
40 to 80 | – | – | O=C(NC(CN1CCOCC1)c1nnc(-c2ccc(OC(F)(F)F)cc2)o1)c1ccc(Cl)cc1 (stereo not drawn) [Compound 117, 4-chloro-N-(2-morpholino-1-(5-(4-(trifluoro-methoxy)phenyl)-1,3,4-oxadiazol-2-yl)ethyl) benzamide]
40 to 80 | – | 72 | CNCC(NC(=O)c1ccc(Cl)cc1)c1nnc(-c2ccc(OC(F)(F)F)cc2)o1 (stereo not drawn) [Compound 118, 4-chloro-N-(2-(methylamino)-1-(5-(4-(tri-fluoromethoxy)phenyl)-1,3,4-oxadiazol-2-yl)ethyl)benzamide]
40 to 80 | – | – | O=C(NC(CNCCO)c1nnc(-c2ccc(OC(F)(F)F)cc2)o1)c1ccc(Cl)cc1 (stereo not drawn) [Compound 119, 4-chloro-N-(2-((2-hydroxyethyl)amino)-1-(5-(4-(trifluoro-methoxy)phenyl)-1,3,4-oxadiazol-2-yl)ethyl) benzamide]

Reference: patent US10538516B2, “Oxadiazole derivative and pharmaceutical containing same” (National Center for Geriatrics and Gerontology, priority 2015, dated 2020)
